Source: ChEMBL document CHEMBL1201862, “PubChem BioAssay data set” (2004)
Active and inactive are the calls of the source.

Assays:
CHO-K1 = assay: (§1) Counterscreen for antagonists of the orexin 1 receptor (OX1R; HCRTR1): Homogeneous time resolved fluorescence (HTRF)-based cell-based dose response assay to identify antagonists of the parental CHO-K1 cell line. [Related pubchem assays (depositor defined):AID434989, AID435008, AID463079, AID485270, AID492963, AID492964, AID492965, AID493232, AID504699, AID504701]; assay type: functional; conditions: Cricetulus griseus
[1] = as §1, with “Fluorescence-based” for “Homogeneous time resolved fluorescence (HTRF)-based”, “cell-based high throughput” for “cell-based”, “CHO” for “CHO-K1”; assay type: functional
[2] = molecular target: T1, Orexin/Hypocretin receptor type 1 (Homo sapiens, UniProt O43613); assay: Homogeneous Time Resolved Fluorescence (HTRF)-based cell-based high throughput dose response assay for antagonists of the orexin 1 receptor (OX1R; HCRTR1). [Related pubchem assays (depositor defined):AID434989, AID435008, AID463079, AID485270, AID492963, AID492964, AID492965, AID493232, AID504717, AID504718]; assay type: functional
T1 sequence (O43613 whole entry): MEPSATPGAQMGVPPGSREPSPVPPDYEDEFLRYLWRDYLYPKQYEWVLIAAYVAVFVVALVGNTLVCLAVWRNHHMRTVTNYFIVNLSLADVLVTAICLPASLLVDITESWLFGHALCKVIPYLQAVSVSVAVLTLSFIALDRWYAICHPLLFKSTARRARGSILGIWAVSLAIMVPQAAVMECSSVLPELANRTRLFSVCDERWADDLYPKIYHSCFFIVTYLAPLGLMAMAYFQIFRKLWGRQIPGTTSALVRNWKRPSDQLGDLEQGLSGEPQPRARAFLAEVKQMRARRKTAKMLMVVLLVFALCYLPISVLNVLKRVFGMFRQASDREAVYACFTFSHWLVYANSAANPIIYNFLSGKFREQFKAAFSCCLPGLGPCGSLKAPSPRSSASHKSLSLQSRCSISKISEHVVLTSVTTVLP

[3] = molecular target: T1, Orexin/Hypocretin receptor type 1; assay: Fluorescence-based cell-based high throughput dose response assay for antagonists of the orexin 1 receptor (OX1R; HCRTR1). [Related pubchem assays (depositor defined):AID434989, AID435008, AID463079, AID485270, AID492963, AID492964, AID492965, AID493232, AID504717, AID504718]; assay type: functional
[4] = molecular target: T2, Polyadenylate-binding protein 1 (Homo sapiens, UniProt P11940); assay: PABP1 MLLE–PAM2 interaction inhibitors, dose response, miRNA deadenylation inhibitor project, biochemical, fluorescence polarization, Cy5-PAM2 peptide, secondary (AID 602260); assay type: functional; conditions: read-out: IC50_Mean
[5] = molecular target: T2, Polyadenylate-binding protein 1; assay: PABP1 MLLE–PAM2 binding inhibitor potency, dose response, biochemical, fluorescence polarization, FITC-PAM2 peptide (AID 602259); assay type: functional; conditions: read-out: IC50_Mean
Orexin receptor type 2 [6] = molecular target: T3, Orexin receptor type 2 (Homo sapiens, UniProt O43614); assay: Counterscreen assay for antagonists of the orexin 1 receptor (OX1R; HCRTR1): Fluorescence-based cell-based dose response assay for antagonists of the orexin 2 receptor (OX2R; HCRTR2), run by assay provider.; assay type: functional
Orexin receptor type 2 [7] = molecular target: T3, Orexin receptor type 2; assay: Counterscreen assay for antagonists of the orexin 1 receptor (OX1R; HCRTR1): Homogeneous Time Resolved Fluorescence (HTRF)-based cell-based dose response assay for antagonists of the orexin 2 receptor (OX2R; HCRTR2), run by assay provider.; assay type: functional
[8] = molecular target: 26S proteasome non-ATPase regulatory subunit 14 (Homo sapiens, UniProt O00487); assay: inhibition of proteasome subunit RPN11 – biochemical, fluorescence polarization, uHTS hits, confirmation (AID 602368); assay type: functional
[9] = molecular target: 72 kDa type IV collagenase (Homo sapiens, UniProt P08253); assay: Dose Response validation of uHTS RPN11 inhibitor hits using a MMP-2 Fluorescence assay.; assay type: functional
Prothrombin = Prothrombin (Bos taurus, UniProt P00735); assay: thrombin inhibition, dose response, biochemical, fluorescence polarization, uHTS hits (AID 602369); assay type: functional
[10] = molecular target: T4, Glycogen synthase kinase-3 alpha (Homo sapiens, UniProt P49840); assay: Inhibition of Human GSK-3 alpha Activity Measured in Biochemical System Using Microfluidics - 2063-06_Inhibitor_Dose_DryPowder_Activity_Set2. [Related pubchem assays (depositor defined):AID2709]
[11] = molecular target: T5, Glycogen synthase kinase-3 beta (Homo sapiens, UniProt P49841); assay: Inhibition of Human GSK-3 beta Activity Measured in Biochemical System Using Microfluidics - 2063-05_Inhibitor_Dose_DryPowder_Activity_Set2. [Related pubchem assays (depositor defined):AID2709]
[12] = molecular target: Cyclin-dependent kinase 5/CDK5 activator 1 (Homo sapiens, UniProt Q00535); assay: CDK5-p25 kinase inhibitors, specificity check, dose response, selectivity assay for GSK-3 alpha inhibitor project, biochemical, microfluidic mobility shift, dry powder (AID 588430)
[13] = molecular target: Protein kinase C theta type (Homo sapiens, UniProt Q04759); assay: Navigating the Kinome. Panel member name: PRKCQ; assay type: functional
[14] = molecular target: Ribosomal protein S6 kinase alpha-3 (Homo sapiens, UniProt P51812); assay type: functional;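 further: measured within a kinome-wide profiling panel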
[15] = molecular target: Tyrosine-protein kinase JAK2 (Homo sapiens, UniProt O60674); assay type: functional;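 further: JAK2 tested as one member of a kinase panel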
[16] = molecular target: 5'-AMP-activated protein kinase catalytic subunit alpha-1 (Homo sapiens, UniProt Q13131); assay type: functional
[17] = molecular target: Proto-oncogene tyrosine-protein kinase receptor Ret (Homo sapiens, UniProt P07949); assay type: functional;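 further: measured within a kinome-wide profiling panel, RET as the panel member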
[18] = molecular target: Tyrosine-protein kinase receptor TYRO3 (Homo sapiens, UniProt Q06418); assay type: functional;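 further: TYRO3 value obtained as one member of a kinome-wide profiling panel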
[19] = molecular target: Death-associated protein kinase 3 (Homo sapiens, UniProt O43293); assay type: functional;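 further: measured as one member of a kinome-wide profiling panel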
[20] = molecular target: Mitogen-activated protein kinase 8 (Homo sapiens, UniProt P45983); assay type: functional;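 further: value comes from one member of a kinome-wide kinase profiling panel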
[21] = molecular target: Serine/threonine-protein kinase pim-1 (Homo sapiens, UniProt P11309); assay type: functional
Aurora kinase A = molecular target: T6, Aurora kinase A (Homo sapiens, UniProt O14965); assay type: functional;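 further: value from the Navigating the Kinome kinase panel profiling, panel entry STK6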
T6 sequence (O14965 whole entry): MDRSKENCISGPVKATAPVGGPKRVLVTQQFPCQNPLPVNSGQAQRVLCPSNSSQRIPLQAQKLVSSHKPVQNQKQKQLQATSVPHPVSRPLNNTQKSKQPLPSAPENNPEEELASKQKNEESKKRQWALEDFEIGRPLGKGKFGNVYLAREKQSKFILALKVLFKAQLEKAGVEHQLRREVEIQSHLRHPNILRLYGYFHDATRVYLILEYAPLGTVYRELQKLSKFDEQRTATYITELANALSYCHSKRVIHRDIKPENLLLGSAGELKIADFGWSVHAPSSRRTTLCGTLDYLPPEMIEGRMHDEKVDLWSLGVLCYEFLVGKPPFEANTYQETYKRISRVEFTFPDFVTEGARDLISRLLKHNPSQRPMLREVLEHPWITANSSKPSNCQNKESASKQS

LIM domain kinase 1 = LIM domain kinase 1 (Homo sapiens, UniProt P53667); assay: Navigating the Kinome. Panel member name: LIMK1; assay type: functional
[22] = molecular target: High affinity nerve growth factor receptor (Homo sapiens, UniProt P04629); assay type: functional;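 further: NTRK1 tested as one member of a kinome-wide profiling panel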
[23] = molecular target: T4, Glycogen synthase kinase-3 alpha; assay type: functional
[24] = molecular target: Mitogen-activated protein kinase kinase kinase kinase 2 (Homo sapiens, UniProt Q12851); assay type: functional;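 further: measured as one member of a kinome-wide kinase panel, with MAP4K2 as the panel entry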
[25] = molecular target: Hepatocyte growth factor receptor (Homo sapiens, UniProt P08581); assay type: functional;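 further: kinase panel profiling across the kinome, with MET as the panel member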
[26] = molecular target: Platelet-derived growth factor receptor beta (Homo sapiens, UniProt P09619); assay type: functional;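 further: value comes from a kinome panel, with PDGFRB tested as one panel member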
[27] = molecular target: Receptor-type tyrosine-protein kinase FLT3 (Homo sapiens, UniProt P36888); assay type: functional;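 further: FLT3 was tested as one member of a kinome-wide kinase panel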
[28] = molecular target: Serine/threonine-protein kinase Chk1 (Homo sapiens, UniProt O14757); assay type: functional;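 further: measured as one member of a kinome-wide kinase profiling panel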
[29] = molecular target: Tyrosine-protein kinase ABL1 (Homo sapiens, UniProt P00519); assay type: functional
[30] = molecular target: Vascular endothelial growth factor receptor 2 (Homo sapiens, UniProt P35968); assay type: functional
[31] = molecular target: Dual specificity tyrosine-phosphorylation-regulated kinase 1B (Homo sapiens, UniProt Q9Y463); assay: Navigating the Kinome. Panel member name: DYRK1B; assay type: functional
[32] = molecular target: Cyclin-dependent kinase 19 (Homo sapiens, UniProt Q9BWU1); assay: Navigating the Kinome. Panel member name: CDC2L6; assay type: functional
[33] = molecular target: T5, Glycogen synthase kinase-3 beta; assay type: functional
[34] = molecular target: Cyclin-dependent kinase 9 (Homo sapiens, UniProt P50750); assay type: functional;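 further: value from the CDK9 entry of a kinome-spanning kinase panel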
[35] = molecular target: BDNF/NT-3 growth factors receptor (Homo sapiens, UniProt Q16620); assay type: functional;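 further: NTRK2 measured as one member of a broad kinome-wide kinase profiling panel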
[36] = molecular target: cAMP-dependent protein kinase catalytic subunit alpha (Homo sapiens, UniProt P17612); assay type: functional
[37] = molecular target: Dual specificity protein kinase CLK4 (Homo sapiens, UniProt Q9HAZ1); assay type: functional
[38] = molecular target: Macrophage colony-stimulating factor 1 receptor (Homo sapiens, UniProt P07333); assay type: functional;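 further: value comes from the Navigating the Kinome screening panel, CSF1R member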
[39] = molecular target: Dual specificity mitogen-activated protein kinase kinase 2 (Homo sapiens, UniProt P36507); assay: Navigating the Kinome. Panel member name: MAP2K2; assay type: functional
[40] = molecular target: Dual specificity tyrosine-phosphorylation-regulated kinase 1A (Homo sapiens, UniProt Q13627); assay type: functional;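 further: measured against DYRK1A as one member of a broad kinome profiling panel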
[41] = molecular target: Calcium/calmodulin-dependent protein kinase type II subunit alpha (Homo sapiens, UniProt Q9UQM7); assay: Navigating the Kinome. Panel member name: CAMK2A; assay type: functional

T2 sequence (P11940 whole entry): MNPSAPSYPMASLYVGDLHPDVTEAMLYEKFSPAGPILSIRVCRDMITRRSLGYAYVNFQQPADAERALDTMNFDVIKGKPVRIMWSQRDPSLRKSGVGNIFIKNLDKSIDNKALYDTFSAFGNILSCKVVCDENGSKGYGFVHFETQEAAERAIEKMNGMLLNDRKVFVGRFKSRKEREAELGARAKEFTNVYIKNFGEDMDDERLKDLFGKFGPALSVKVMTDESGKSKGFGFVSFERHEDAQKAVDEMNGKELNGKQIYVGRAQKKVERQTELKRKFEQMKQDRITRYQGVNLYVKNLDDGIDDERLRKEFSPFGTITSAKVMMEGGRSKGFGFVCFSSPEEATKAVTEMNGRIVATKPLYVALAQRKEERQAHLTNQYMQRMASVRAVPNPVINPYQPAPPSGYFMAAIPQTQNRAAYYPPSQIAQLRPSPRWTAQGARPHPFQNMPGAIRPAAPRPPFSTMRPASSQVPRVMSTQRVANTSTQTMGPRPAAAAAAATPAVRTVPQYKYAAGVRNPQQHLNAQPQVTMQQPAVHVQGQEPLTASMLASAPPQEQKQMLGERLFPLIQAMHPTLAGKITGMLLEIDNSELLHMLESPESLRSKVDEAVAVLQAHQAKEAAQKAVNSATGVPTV
T5 sequence (P49841 whole entry): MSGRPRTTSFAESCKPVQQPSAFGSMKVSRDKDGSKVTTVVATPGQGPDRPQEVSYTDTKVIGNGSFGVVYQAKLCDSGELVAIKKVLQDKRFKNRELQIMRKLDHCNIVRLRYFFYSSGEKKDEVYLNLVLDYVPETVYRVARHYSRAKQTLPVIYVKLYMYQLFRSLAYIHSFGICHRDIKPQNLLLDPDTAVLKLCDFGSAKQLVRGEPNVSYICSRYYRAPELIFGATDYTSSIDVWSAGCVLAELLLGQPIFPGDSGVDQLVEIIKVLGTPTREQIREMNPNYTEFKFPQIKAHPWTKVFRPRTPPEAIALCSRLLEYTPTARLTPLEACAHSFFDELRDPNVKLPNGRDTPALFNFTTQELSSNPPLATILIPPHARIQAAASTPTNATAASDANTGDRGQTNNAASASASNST
T3 sequence (O43614 whole entry): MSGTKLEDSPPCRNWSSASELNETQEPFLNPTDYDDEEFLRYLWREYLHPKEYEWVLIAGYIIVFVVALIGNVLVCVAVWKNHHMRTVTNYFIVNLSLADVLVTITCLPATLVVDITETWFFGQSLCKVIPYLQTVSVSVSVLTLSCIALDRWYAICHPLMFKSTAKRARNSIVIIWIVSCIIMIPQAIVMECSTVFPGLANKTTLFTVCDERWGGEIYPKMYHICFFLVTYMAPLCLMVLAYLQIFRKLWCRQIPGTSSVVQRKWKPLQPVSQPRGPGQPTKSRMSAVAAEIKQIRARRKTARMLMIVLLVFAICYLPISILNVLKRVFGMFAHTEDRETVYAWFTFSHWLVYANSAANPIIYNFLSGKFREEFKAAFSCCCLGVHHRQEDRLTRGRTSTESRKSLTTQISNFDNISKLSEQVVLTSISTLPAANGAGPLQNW
T4 sequence (P49840 whole entry): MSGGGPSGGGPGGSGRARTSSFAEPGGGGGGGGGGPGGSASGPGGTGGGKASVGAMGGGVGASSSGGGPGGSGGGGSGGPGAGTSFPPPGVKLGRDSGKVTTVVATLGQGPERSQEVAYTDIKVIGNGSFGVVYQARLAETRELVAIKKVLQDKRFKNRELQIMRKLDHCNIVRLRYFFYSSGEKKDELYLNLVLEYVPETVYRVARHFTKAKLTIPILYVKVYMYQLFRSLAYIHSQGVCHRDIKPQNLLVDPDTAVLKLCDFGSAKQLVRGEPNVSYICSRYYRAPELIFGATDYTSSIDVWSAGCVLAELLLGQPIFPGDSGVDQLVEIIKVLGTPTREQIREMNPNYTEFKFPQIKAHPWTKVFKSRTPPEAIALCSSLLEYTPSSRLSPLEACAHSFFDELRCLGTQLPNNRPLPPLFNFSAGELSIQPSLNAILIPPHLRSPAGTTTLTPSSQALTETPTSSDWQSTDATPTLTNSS
Cyclin-dependent kinase 9, sequence (P50750 whole entry): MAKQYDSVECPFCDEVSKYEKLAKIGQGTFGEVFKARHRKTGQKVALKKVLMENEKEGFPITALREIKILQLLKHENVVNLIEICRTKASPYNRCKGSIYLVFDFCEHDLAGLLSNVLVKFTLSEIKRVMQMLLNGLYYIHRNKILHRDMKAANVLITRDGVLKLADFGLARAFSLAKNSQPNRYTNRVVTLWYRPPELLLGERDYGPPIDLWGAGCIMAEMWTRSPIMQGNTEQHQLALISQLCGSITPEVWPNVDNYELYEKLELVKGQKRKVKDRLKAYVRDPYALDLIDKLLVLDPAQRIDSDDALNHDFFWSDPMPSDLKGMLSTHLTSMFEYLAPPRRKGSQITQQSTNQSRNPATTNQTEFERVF
High affinity nerve growth factor receptor, sequence (P04629 whole entry): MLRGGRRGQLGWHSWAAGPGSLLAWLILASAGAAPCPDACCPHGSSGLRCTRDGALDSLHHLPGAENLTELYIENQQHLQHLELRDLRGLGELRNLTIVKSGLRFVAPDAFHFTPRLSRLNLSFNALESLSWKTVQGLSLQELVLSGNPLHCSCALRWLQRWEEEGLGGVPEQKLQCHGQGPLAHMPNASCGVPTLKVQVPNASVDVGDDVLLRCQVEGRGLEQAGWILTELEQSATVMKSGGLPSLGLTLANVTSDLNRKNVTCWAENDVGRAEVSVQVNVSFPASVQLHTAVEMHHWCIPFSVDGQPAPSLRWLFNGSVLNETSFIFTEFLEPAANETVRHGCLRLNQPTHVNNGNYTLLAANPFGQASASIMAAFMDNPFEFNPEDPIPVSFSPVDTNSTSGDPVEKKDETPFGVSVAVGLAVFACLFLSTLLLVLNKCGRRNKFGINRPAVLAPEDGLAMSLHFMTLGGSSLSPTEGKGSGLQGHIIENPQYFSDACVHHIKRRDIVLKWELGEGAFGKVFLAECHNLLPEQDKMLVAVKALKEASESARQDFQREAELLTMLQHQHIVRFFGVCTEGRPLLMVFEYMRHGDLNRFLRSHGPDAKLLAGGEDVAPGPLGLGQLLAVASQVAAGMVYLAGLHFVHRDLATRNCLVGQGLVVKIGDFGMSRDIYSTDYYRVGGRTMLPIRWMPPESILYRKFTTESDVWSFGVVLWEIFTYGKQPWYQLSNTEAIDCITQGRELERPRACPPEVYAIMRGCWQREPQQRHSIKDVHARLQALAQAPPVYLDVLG
Macrophage colony-stimulating factor 1 receptor, sequence (P07333 whole entry): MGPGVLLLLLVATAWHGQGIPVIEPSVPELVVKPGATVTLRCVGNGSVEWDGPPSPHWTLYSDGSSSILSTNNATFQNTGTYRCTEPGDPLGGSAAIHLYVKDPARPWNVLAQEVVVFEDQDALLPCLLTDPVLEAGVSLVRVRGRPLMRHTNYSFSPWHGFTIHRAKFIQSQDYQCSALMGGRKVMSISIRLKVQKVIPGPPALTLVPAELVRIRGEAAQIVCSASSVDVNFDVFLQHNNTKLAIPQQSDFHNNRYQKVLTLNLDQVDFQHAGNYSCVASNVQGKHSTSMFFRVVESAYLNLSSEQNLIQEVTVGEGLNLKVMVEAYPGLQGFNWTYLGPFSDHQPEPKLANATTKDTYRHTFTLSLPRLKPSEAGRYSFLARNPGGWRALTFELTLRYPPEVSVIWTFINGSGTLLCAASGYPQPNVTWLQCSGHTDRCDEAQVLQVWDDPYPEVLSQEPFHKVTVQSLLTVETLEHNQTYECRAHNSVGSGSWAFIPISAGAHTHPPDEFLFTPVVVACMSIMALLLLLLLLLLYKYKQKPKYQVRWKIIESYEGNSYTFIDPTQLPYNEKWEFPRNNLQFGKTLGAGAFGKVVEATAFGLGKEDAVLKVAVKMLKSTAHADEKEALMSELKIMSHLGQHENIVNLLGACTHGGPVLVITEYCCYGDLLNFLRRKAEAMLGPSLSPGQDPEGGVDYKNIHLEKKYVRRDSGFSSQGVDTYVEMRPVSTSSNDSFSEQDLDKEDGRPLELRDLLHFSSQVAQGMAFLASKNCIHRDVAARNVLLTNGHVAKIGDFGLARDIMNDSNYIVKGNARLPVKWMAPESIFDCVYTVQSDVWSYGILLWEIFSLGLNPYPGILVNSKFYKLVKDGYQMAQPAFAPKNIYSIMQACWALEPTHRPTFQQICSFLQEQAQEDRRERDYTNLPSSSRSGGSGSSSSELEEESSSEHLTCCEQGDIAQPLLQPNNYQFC
Cyclin-dependent kinase 5/CDK5 activator 1, sequence (Q00535 whole entry): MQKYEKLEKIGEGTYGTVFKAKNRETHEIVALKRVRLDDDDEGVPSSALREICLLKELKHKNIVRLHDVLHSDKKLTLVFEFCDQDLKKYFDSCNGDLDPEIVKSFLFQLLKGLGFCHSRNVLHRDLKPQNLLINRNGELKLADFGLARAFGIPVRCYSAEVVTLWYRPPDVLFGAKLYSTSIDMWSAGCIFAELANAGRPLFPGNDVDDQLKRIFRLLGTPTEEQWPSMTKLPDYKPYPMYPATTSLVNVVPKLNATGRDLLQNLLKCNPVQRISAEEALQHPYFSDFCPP
Cyclin-dependent kinase 5/CDK5 activator 1, sequence (Q15078 whole entry, further chain): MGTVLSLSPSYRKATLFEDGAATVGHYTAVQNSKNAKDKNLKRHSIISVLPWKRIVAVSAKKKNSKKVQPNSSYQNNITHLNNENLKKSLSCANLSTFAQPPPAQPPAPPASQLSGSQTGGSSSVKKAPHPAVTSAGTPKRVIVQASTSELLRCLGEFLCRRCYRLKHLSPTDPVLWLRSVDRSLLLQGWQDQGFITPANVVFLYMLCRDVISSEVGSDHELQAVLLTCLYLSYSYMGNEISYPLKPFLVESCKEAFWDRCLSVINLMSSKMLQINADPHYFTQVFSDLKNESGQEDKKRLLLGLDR

CCN1C(=O)/C(=C2/SC(C)=C(C)N2CC)SC1=S
IC50 (CHO-K1): > 66.2 µM (inactive)
IC50 [1]: > 49.8 µM (inactive)
IC50 [2]: 3.15 µM (active)
IC50 [3]: 14.7 µM (inactive)
IC50 [4]: > 66 µM (inactive)
IC50 [5]: > 66 µM (inactive)
IC50 (Orexin receptor type 2 [6]): > 88.8 µM (inactive)
IC50 (Orexin receptor type 2 [7]): > 50 µM (inactive)

O=C1NC(=O)N(c2cccc3ccccc23)C(=O)/C1=C\NN1CCCCC1c1cccnc1 (stereo not given)
IC50 [8]: 27.4 µM (active)
IC50 [9]: > 100 µM (inactive)
IC50 (Prothrombin): 59.6 µM (active)

O=C(CSc1ccc2nnc(-c3cccs3)n2n1)N1CCCC1
AC50 [10]: 2.08 µM (active)
AC50 [11]: 0.742 µM (active)
AC50 [12]: 78.4 µM (active)

COc1ccc(-c2ccc(N)cc2)c2cnoc12
Ki [13]: > 79.4 µM (inactive)
Ki [14]: 63.1 µM (active)
Ki [15]: 79.4 µM (active)
Ki [16]: 79.4 µM (active)
Ki [17]: 39.8 µM (active)
Ki [18]: 100 µM (active)
Ki [19]: 79.4 µM (active)
Ki [20]: 50.1 µM (active)
Ki [21]: 12.6 µM (active)
Ki (Aurora kinase A): > 50.1 µM (inactive)
Ki (LIM domain kinase 1): 3.98 µM (active)
Ki [22]: 15.8 µM (active)
Ki [23]: 100 µM (active)
Ki [24]: 63.1 µM (active)
Ki [25]: 79.4 µM (active)
Ki [26]: > 79.4 µM (inactive)
Ki [27]: 79.4 µM (active)
Ki [28]: 3.98 µM (active)
Ki [29]: 63.1 µM (active)
Ki [30]: > 79.4 µM (inactive)
Ki [31]: 50.1 µM (active)
Ki [32]: > 100 µM (inactive)
Ki [33]: 31.6 µM (active)
Ki [34]: > 63.1 µM (inactive)
Ki [35]: 100 µM (active)
Ki [36]: > 50.1 µM (inactive)
Ki [37]: 7.94 µM (active)
Ki [38]: > 100 µM (inactive)
Ki [39]: 100 µM (active)
Ki [40]: > 63.1 µM (inactive)
Ki [41]: 79.4 µM (active)
